Measured values: patent EP4417202A1, “ANTI-CANCER ACTION OF BAG1-SELECTIVE IMIDAZOPYRIDINE COMPOUNDS IN STEROID HORMONE RECEPTOR-POSITIVE BREAST AND PROSTATE CANCER” (Karlsruher Institut für Technologie, priority 2023, dated 2024)

Legend:
p53 = assay: Immunofluorescence assay, cellular localization of p53; format: cell-based; settings: MCF-7 cells, 1 µM
Protocol: For immunofluorescence assay, MCF-7, T47D, 22Rv.1, LAPC-4 and LNCaP cells (10^4 each) were seeded on coverslips in a 24-well plate and the desired treatment applied. After three times washing with PBS, cells were fixed with 4% paraformaldehyde solution for 10 min at room temperature. Next, the cells were washed three times with PBS and permeabilized with 0.5% Triton X-100 for 10 min at room temperature. Following three additional washing steps with PBS, cells were treated with 5% bovine serum albumin (w/v) for 1 h at room temperature and subjected to overnight incubation with the primary antibody p53 (DO1 clone or Sp5, Thermo Fisher Scientific), ERα (F-10, Santa-Cruz) or mortalin (D-9, Santa-Cruz) and then washed three times with PBS followed by incubation with goat anti-mouse IgG, Alexa Fluor™ 488 antibody and/or goat anti-rabbit IgG, Alexa Fluor™ 546 antibody (Thermo Fisher Scientific) for 1 h at room temperature in the dark. All subsequent steps were performed in the dark. Cells were washed 3 times with PBS and stained with 0.1 µg/ml DAPI (Thermo Fisher Scientific) solution at 1:10,000 (v/v) dilution for 15 min at room temperature. After three times washing with PBS the cells were mounted in Mowiol® 4-88 on microscope slides and observed by laser-scanning confocal microscopy (Confocal Microscope platform […]6-LSM900, […], Germany).

ERα = tested on: ERα
Protocol: For Western blotting, cells were lysed in NP-40 lysis buffer (1% NP-40, 50 mM Tris-HCl, pH 8.0, 150 mM NaCl, 5 mM EDTA) or 1× passive lysis buffer (Promega, Germany) for 15 min on ice. Cell debris was removed by centrifugation at 13,000 rpm for 10 min and used for SDS-polyacrylamide gel electrophoresis (PAGE) and Western blotting.
Western Blotting was carried out using standard protocols with antibodies: p53 (clone DO1), p53 (Sp5, Thermo Fisher Scientific Karlsruhe, Germany), Mdm2 (4B2, Abcam, Cambridge, UK). […] Secondary goat anti-mouse and goat anti-rabbit antibodies were purchased from DAKO (Bollschweil, Germany).

22Rv.1 = assay: Clonogenic assay (clonal expansion); format: cell-based; settings: Homo sapiens, 22Rv1; Prostate Cancer (22Rv.1), AR+; inhibition of clonal expansion
Protocol: (§1) Cells were seeded at a density of 1-2×10^3 cells/well in a 6 well plate in RPMI 1640 supplemented with 10% FBS, penicillin (100 u/ml), streptomycin (100 u/ml), and L-glutamine (2 mM). Cells were treated with increasing concentrations of X15695 and cultured for 14 to 21 days. Medium and compounds were exchanged after 7 days. Cells were fixed with methanol/ acetic acid mixture (3:1 v/v) and the formation of colonies was visualized using 0.5% crystal violet (w/v) in 20% methanol (v/v). Plates were scanned in a conventional office scanner (Epson). The area covered by colonies was calculated using the ColonyArea Plugin for ImageJ.

U2OS = assay: Clonogenic assay (clonal expansion); format: cell-based; settings: U2OS (osteosarcoma)
Protocol: as §1

LNCaP = assay: Clonogenic assay (clonal expansion); format: cell-based; settings: Homo sapiens; Prostate Cancer (LNCaP), AR+; inhibition of clonal expansion
Protocol: as §1

DU145 = assay: Clonogenic assay (clonal expansion); format: cell-based; settings: Homo sapiens, DU-145; Prostate Cancer (DU145), AR-; inhibition of clonal expansion
Protocol: as §1

ZR75-1 = assay: Clonogenic assay (clonal expansion); format: cell-based; settings: Homo sapiens, ZR-75-1; Breast Cancer (ZR75-1), ER+; inhibition of clonal expansion
Protocol: as §1

TRMCF-7 cells = assay: Clonogenic assay (clonal expansion); format: cell-based
Protocol: as §1

HeLa = assay: Clonogenic assay (clonal expansion); format: cell-based; settings: HeLa (cervical)
Protocol: as §1

A549 = assay: Clonogenic assay (clonal expansion); format: cell-based; settings: A549 (lung)
Protocol: as §1

T47D = assay: Clonogenic assay (clonal expansion); format: cell-based; settings: Homo sapiens; Breast Cancer (T47D), ER+; inhibition of clonal expansion
Protocol: as §1

PC3 = assay: Clonogenic assay (clonal expansion); format: cell-based; settings: Homo sapiens; Prostate Cancer (PC3), AR-; inhibition of clonal expansion
Protocol: as §1

MCF-7 = assay: Clonogenic assay (clonal expansion); format: cell-based
Protocol: as §1

MDA-MB231 = assay: Clonogenic assay (clonal expansion); format: cell-based; settings: Homo sapiens, MDA-MB-231; Breast Cancer (MDA-MB231), ER-; inhibition of clonal expansion
Protocol: as §1

MCF-7 and T47D cells = assay: Apoptosis assessment, 7-AAD and Annexin V double staining; format: cell-based; settings: 1 µM, 48 h
Protocol: Induction of apoptosis in response to treatment with X15695 was analyzed in MCF-7 and T47D cells using PE Annexin V Apoptosis Detection Kit with 7-AAD (BD Bioscience, San Diego, CA, USA) according to the manufacturer's protocol. In short, cells were harvested by trypsinization, and single cell suspensions (1×10^6 cells) were prepared as described above in 100 µl PBS. Cells were stained with 5 µl PE Annexin V and 5 µl 7-AAD for 15 min at room temperature in the dark. Subsequently, 400 µl PBS were added to each sample and flow cytometry measurements were performed within one hour. Cells stained with PE Annexin V or 7-AAD alone were used for compensation. Flow cytometry analysis was performed using BD FACSAria (BD Biosciences, Franklin Lakes, NJ, USA). Flow cytometry data were analyzed using FlowJo 10.8.1 cytometry analysis software (FlowJo, LLC).

SMILES: Fc1ccc(-c2cn3cc(C(F)(F)F)cc(Cl)c3n2)cc1 [Compound X15695, 8-Chloro-2-(4-fluorophenyl)-6-(trifluoromethyl)imidazo[1,2-a]pyridine]
- cellular localization of p53 (p53): accumulated in the nucleus as early as 8 h after X15695 treatment
- ERα downregulation over time (ERα; MCF-7 cells, 1 µM, time course): rather slow but more sustained downregulation lasing over 24 to 48 h
- concentration sufficient to downregulate ERα (ERα; MCF-7 cells, 8 h): ≤ 1 nM
- ERα level (ERα; immunoblotting, MCF-7 and T47D cells, 48 h): dose-dependently decreased ERα level
- IC50 (22Rv.1): 40.2 ± 16.7 nM
- effect on clonal expansion (U2OS): did not have any effect
- IC50 (LNCaP): 14.1 nM
- IC50 (DU145): 1340 nM
- IC50 (ZR75-1): 7.3 ± 1.6 nM
- inhibition of clonal expansion (TRMCF-7 cells): active
- effect on clonal expansion (HeLa): did not have any effect
- effect on clonal expansion (A549): did not have any effect
- IC50 (T47D): 10.4 ± 2.8 nM
- IC50 (PC3): 2040 nM
- IC50 (MCF-7; Homo sapiens, MCF7, Breast Cancer (MCF-7), ER+, inhibition of clonal expansion): 3.5 ± 1.7 nM
- effect on clonal expansion (MCF-7; MCF-7 cells, compared with HeLa, A549 and U2OS): dose-dependently inhibited the clonal expansion
- IC50 (MDA-MB231): 5540 nM
- apoptosis (MCF-7 and T47D cells): increased number of the cells in the late stage of apoptosis
